Results published in patent US6093838A, “Amines substituted with a dihydro-benzofuranyl or with a dihydro-isobenzofuranyl group, an aryl or heteroaryl group and an alkyl group, having retinoid-like biological activity” (Allergan Sales, Inc., priority 1999, dated 2000).
Where two headings read alike, the source gives them in different places.

What was measured:
RARβ = target: T1, RARβ (Homo sapiens, UniProt P10826); experiment: ligand binding assay, RARβ; conditions: read-out: RAR Bind. Ki β
T1 sequence (P10826 1-448 isoform P10826-2): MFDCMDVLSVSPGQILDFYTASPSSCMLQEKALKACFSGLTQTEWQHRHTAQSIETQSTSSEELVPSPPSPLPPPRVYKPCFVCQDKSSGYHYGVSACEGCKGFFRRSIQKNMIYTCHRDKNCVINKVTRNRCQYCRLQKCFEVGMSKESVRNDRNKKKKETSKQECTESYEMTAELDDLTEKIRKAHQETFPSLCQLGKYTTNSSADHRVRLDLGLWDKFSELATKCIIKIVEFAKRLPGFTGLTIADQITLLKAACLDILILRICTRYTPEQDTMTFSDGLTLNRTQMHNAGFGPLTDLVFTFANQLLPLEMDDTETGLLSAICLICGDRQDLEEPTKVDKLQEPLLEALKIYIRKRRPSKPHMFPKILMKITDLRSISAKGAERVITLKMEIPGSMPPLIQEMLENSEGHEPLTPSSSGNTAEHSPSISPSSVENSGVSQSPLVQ
Text: (§1) Other assays described below, measure the ability of the compounds of the present invention to bind to, and/or activate various retinoid receptor subtypes. When in these assays a compound binds to a given receptor subtype and activates the transcription of a reporter gene through that subtype, then the compound is considered an agonist of that receptor subtype. […] In the below described assays the ability of the compounds to bind to RARα, RARβ, RARγ, RXRα, RXRβ and RXRγ receptors, and the ability or inability of the compounds to activate transcription of a reporter gene through these receptor subtypes can be tested. […] However, some of the compounds of the invention may behave as retinoid antagonists or partial antagonists and/or as inverse agonists. Because of the complex distribution of the different retinoid receptors in various organs of the mammalian body partial agonists and partial antagonists and compounds which have the characteristics of both may lend themselves to particularly useful therapeutic applications and may avoid serious side effects of conventional retinoid drugs.
(§2) A holoreceptor transactivation assay and a ligand binding assay which measure the antagonist/agonist like activity of the compounds of the invention, or their ability to bind to the several retinoid receptor subtypes, respectively, are described in published PCT Application No. WO WO93/11755 (particularly on pages 30-33 and 37-41) published on Jun. 24, 1993, the specification of which is also incorporated herein by reference. A detailed experimental procedure for holoreceptor transactivations has been described by Heyman et al. Cell 68, 397-406, (1992); Allegretto et al. J. Biol. Chem. 268, 26625-26633, and Mangelsdorf et al. The Retinoids: Biology, Chemistry and Medicine, pp 319-349, Raven Press Ltd., New York, which are expressly incorporated herein by reference. The results obtained in this assay are expressed in EC50 numbers, as they are also in the chimeric receptor transactivation assay. The results of ligand binding assay are expressed in Kd numbers. (See Cheng et al. Biochemical Pharmacology Vol. 22 pp 3099-3108, expressly incorporated herein by reference.)
(§3) Table 1 discloses the activity of certain exemplary compounds of the invention in the above-described chimeric receptor transactivation assay, holoreceptor transactivation assay and a ligand binding assays. Particularly, the transactivation data pertaining to RAR receptors were obtained in the chimeric assay, and the data pertaining to transactivation of RXR receptors were obtained in the holoreceptor transactivation assay.

RARα = target: T2, RARα (Homo sapiens, UniProt P10276); experiment: ligand binding assay, RARα
T2 sequence (P10276 1-462): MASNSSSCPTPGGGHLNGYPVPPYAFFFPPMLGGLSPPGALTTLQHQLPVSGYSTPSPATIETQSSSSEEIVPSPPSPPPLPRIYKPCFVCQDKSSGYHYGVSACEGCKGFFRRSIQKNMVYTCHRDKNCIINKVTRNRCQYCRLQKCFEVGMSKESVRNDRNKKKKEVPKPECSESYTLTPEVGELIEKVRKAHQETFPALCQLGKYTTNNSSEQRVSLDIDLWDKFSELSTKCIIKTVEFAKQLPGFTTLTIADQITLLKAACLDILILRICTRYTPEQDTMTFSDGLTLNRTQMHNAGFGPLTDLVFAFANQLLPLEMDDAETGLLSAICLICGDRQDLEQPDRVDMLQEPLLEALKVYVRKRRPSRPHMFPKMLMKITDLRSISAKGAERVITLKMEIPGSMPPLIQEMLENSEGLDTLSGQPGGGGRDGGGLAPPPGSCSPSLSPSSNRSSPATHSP
Text: as §1, §2, §3

RXRα = target: T3, RXRα (Homo sapiens, UniProt P19793); experiment: ligand binding assay, RXRα; conditions: read-out: RXR Bind Ki α
T3 construct: expressed in transfected cells
T3 sequence (P19793 1-462): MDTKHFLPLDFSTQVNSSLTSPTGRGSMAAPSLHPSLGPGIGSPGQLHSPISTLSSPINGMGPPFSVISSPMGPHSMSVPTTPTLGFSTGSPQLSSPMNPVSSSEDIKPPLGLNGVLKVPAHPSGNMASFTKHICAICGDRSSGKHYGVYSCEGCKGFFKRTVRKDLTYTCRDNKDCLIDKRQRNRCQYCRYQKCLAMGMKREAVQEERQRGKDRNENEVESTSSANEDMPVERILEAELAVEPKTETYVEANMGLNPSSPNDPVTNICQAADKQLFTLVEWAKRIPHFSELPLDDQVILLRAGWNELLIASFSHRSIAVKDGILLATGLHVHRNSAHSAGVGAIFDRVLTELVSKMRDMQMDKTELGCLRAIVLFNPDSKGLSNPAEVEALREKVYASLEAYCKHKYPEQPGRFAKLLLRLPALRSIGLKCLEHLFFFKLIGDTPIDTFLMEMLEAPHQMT
Text: as §1, §2, §3

RXRγ [1] = target: T4, RXRγ (Mus musculus, UniProt P28705); experiment: holoreceptor transactivation assay, RXRγ; type: cell-based; conditions: for EC50: holoreceptor transactivation, RXRγ, read-out: RXR Trans. EC50 γ; for Emax: relative to 10^-6 M cyclopropyl penta-2,4-dienoic acid reference (RXRs), read-out: % efficacy (RXRγ transactivation)
T4 construct: expressed in transfected cells
T4 sequence (P28705 1-463): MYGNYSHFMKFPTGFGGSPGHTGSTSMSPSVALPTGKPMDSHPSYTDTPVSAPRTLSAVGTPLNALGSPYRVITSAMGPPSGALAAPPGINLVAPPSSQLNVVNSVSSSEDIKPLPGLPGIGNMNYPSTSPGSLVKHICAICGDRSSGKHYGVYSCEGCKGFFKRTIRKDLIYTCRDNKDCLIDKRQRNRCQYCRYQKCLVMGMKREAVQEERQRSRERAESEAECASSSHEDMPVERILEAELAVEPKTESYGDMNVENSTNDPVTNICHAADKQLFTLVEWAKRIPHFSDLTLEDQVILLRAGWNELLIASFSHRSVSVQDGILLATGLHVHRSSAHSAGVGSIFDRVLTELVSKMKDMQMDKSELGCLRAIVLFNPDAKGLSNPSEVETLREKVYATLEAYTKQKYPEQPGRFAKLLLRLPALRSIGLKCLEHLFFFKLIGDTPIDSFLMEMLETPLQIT
Text: as §1, §2, §3

RXRγ [2] = experiment: ligand binding assay, RXRγ; conditions: read-out: RXR Bind Ki γ
Text: as §1, §2, §3

SMILES | Ki (RARβ) [nM] | Ki (RARα; read-out: RAR Bind. Ki α) [nM] | Ki (RXRα) [nM] | EC50 (RXRγ [1]) [nM] | Emax (RXRγ [1]) [%] | Ki (RXRγ [2]) [nM] | Ki (RARα; heading: RAR Bind. Ki α) [nM]
CCN(c1ccc(C(=O)O)cc1)c1cc(C)c2c(c1)C(C)(C)CO2 [Compound 27, 4-[Ethyl-(3,3,7-trimethyl-2,3-dihydro-benzofuran-5-yl)-amino]-benzoic acid] | > 30000 | 30000 | 15000 | > 1000 |  | > 100000 | 
CC(C)N(c1ccc(C(=O)O)cc1)c1ccc2c(c1)C(C)(C)OC2(C)C [Compound 87, 4-[i-Propyl-(1,1,3,3-tetramethyl-1,3-dihydro-isobenzofuran-5-yl)-amino]-benzoic acid] | > 10000 | > 10000 | 650 | 765 | 134 | 2100 | 
CC(C)c1cc(N(C)c2ccc(C(=O)O)cc2)cc2c1OCC2(C)C [Compound 30, 4-[Methyl-(3,3-dimethyl-7-isopropyl-2,3-dihydro-benzofuran-5-yl)-amino]-benzoic acid] | > 30000 | 16000 | 11000 | > 1000 | 70 | > 10000 | 
CCc1cc(N(CC)c2ccc(C(=O)O)cc2)cc2c1OCC2(C)C [Compound 29, 4-[Ethyl-(3,3-dimethyl-7-ethyl-2,3-dihydro-benzofuran-5-yl)-amino]-benzoic acid] | > 10000 | > 10000 | > 1000 | 692 | 130 | > 1000 | 
CCc1cc(N(c2ccc(C(=O)O)cc2)C(C)C)cc2c1OCC2(C)C [Compound 42, 4-[Isopropyl-(3,3-dimethyl-7-ethyl-2,3-dihydro-benzofuran-5-yl)-amino]-benzoic acid] | > 10000 | > 10000 | > 1000 | 511 | 132 | > 1000 | 
CC(C)c1cc(N(c2ccc(C(=O)O)cc2)C(C)C)cc2c1OCC2(C)C [Compound 43] | > 10000 | > 10000 | > 1000 | 19 | 108 |  | 
CCCCN(c1ccc(C(=O)O)cc1)c1ccc2c(c1)C(C)(C)OC2(C)C [Compound 85, 4-[n-Butyl-(1,1,3,3-tetramethyl-1,3-dihydro-isobenzofuran-5-yl)-amino]-benzoic acid] | > 10000 | > 10000 | > 1000 | 700 | 197 | > 1000 | 

More lines, now with the values ahead:

Ki (RARβ) [nM] | Ki (RARα; read-out: RAR Bind. Ki α) [nM] | Ki (RXRα) [nM] | EC50 (RXRγ [1]) [nM] | Emax (RXRγ [1]) [%] | Ki (RXRγ [2]) [nM] | Ki (RARα; heading: RAR Bind. Ki α) [nM] | SMILES
> 10000 | > 10000 | 1000 | 63 | 140 | > 1000 |  | CCN(c1ccc(C(=O)O)cc1)c1ccc2c(c1)C(C)(C)OC2(C)C [Compound 83, 4-[Ethyl-(1,1,3,3-tetramethyl-1,3-dihydro-isobenzofuran-5-yl)-amino]-benzoic acid]
> 10000 |  | 1500 | 51 | 124 | > 1000 | > 10000 | CCCN(c1ccc(C(=O)O)cc1)c1ccc2c(c1)C(C)(C)OC2(C)C [Compound 84, 4-[n-Propyl-(1,1,3,3-tetramethyl-1,3-dihydro-isobenzofuran-5-yl)-amino]-benzoic acid]
> 1000 | > 1000 | 222 | 230 | 122 | 672 |  | CCN(c1ccc(C(=O)O)cc1)c1cc(C(C)(C)C)c2c(c1)C(C)(C)CO2 [Compound 32, 4-[Ethyl-(7-t-butyl-3,3-dimethyl-2,3-dihydro-benzofuran-5-yl)-amino]-benzoic acid]
> 10000 | 12000 | 71 | 17 | 97 | 236 |  | Cc1c(N(c2ccc(C(=O)O)cc2)C(C)C)cc2c(c1C(C)(C)C)OCC2(C)C [Compound 73, 4-[Isopropyl-(7-t-butyl-3,3,6-trimethyl-2,3-dihydro-benzofuran-5-yl)-amino]-benzoic acid]
> 1000 | > 1000 | 11 | 20 | 48 | 344 |  | CC(C)N(c1ccc(C(=O)O)cc1)c1cc(C(C)(C)C)c2c(c1)C(C)(C)CO2 [Compound 44, 4-[Isopropyl-(7-t-butyl-3,3-dimethyl-2,3-dihydro-benzofuran-5-yl)-amino]-benzoic acid]
29000 | 25000 | 1.8 | 85 | 125 | 4100 |  | CCN(c1ccc(C(=O)O)cc1)c1cc(C(C)C)c2c(c1)C(C)(C)CO2 [Compound 31, 4-[Ethyl-(3,3-dimethyl-7-isopropyl-2,3-dihydro-benzofuran-5-yl)-amino]-benzoic acid]
